Degraded data for 1 molecule are collected here from US5830433A, “Radiolabeled growth hormone secretagogue” (Merck & Co., Inc., priority 1996, dated 1998).

This data set can be described thus: storage stability of the radioligand in solution. The class given is physicochemical. The note with it: trace hcl; stored at -20° C. as a solution in 15% methanol/water containing a trace of hydrochloric acid; read-out: stability, loss of radiochemical purity.

For the molecule `CC(C)(N)C(=O)N[C@H](COCc1ccccc1)C(=O)N1CCC2(CC1)CN([35S](C)(=O)=O)c1ccccc12` [[^35 S]-radioligand, [^35 S]N-[1(R)-[(1,2-Dihydro-1-methanesulfonylspiro[3H-indole-3,4'-piperdin]-1'-yl)carbonyl]-2-(phenylmethyloxy)ethyl]-2-amino-2-methylpropanamide], the degraded at 730 h was less than 0.5%.
